For data set [1], the system named is SARS-CoV-2. The following applies: Reference [3], cited from earlier work.
Data set [2] concerns SARS-CoV-2. The conditions noted are these: Reference [3]; read-out: EC 50, for SARS-Cov2, Treatment 24 hrs; cited from earlier work.
For data set [3], the system named is SARS-CoV-2. The conditions noted are these: Reference [4]; read-out: EC 50, for SARS-Cov2, Treatment 48 hrs; cited from earlier work.
A short description of data set [4]: In-line Cascade Impactor (Andersen) evaluation, MDI actuator through elbow connection and ventilator tubing. It is filed as physicochemical. Set-up: Delivered <1.1 mcm / Delivered <4.7 mcm: unit not given here. The conditions noted are these: Alveoli, in-Line Tube (55 cm), HCQB-e, connection w/inner channel, Ave, 5% EtOH, 200 mcg. As to the method:
An example of a ventilator device, for example ventilator device 1700A, was tested and compared to a self-administrable, handheld MDI to determine the target site delivery efficiency in the ventilator circuit as compared to the MDI delivery efficiency without the ventilator circuit (e.g. no elbow connector or ventilator tubing).
Prime HCQ valve by discharging a predetermined number of actuations to waste. Discharge 10 actuations with actuator H004B-a into the cascade impaction sampling apparatus through an elbow connection w/inner channel and an in-line tubing (55 cm long).
Prime HCQ valve by discharging a predetermined number of actuations to waste. Discharge 10 actuations with actuator H004B-c into the cascade impaction sampling apparatus through an elbow connection with an inner channel and an in-line tubing (55 cm long).
Prime HCQ valve by discharging a predetermined number of actuations to waste. […]

The source of these data is patent US20230271770A1, “Anti-Viral Pharmaceutical Formulations Administered Via Devices for Lung Targeted Delivery” (priority 2020, published 2023).

Like-named read-outs stand apart in the source and are kept apart here.

On to `CCN(CC)CCCC(C)Nc1ccnc2cc(Cl)ccc12` (stereo not shown) [CQ, chloroquine], for which the EC50 in data set [1] (read-out: EC 50, for SARS-Cov2, Prophylactic Treatment 24 hrs) is greater than 100 µM; in data set [1] (read-out: EC 50, for SARS-Cov2, Prophylactic Treatment 48 hrs) it was 18 µM; in data set [2], 23.9 µM; in data set [3], 1.13 µM.
In the case of `CCN(CCO)CCCC(C)Nc1ccnc2cc(Cl)ccc12` (stereo not shown) [HICQ Base], the “Delivery Rate” value in data set [4] (<1.1 mcm) was 33.0%. In addition, the “Delivered <1.1 mcm” value in data set [4] came to 66.0.
Regarding `NC(=O)c1ncn([C@@H]2O[C@H](CO)[C@@H](O)[C@H]2O)n1` [Ribavirin], the EC50 in data set [3] is 106 µM.
